Earlier results in US20170258967A1, “COMPOSITIONS AND METHODS FOR DELIVERING AN AGENT TO A WOUND” (UNIVERSITY OF MEMPHIS RESEARCH FOUNDATION, priority 2014, published 2017).

Tested on: S. aureus

## CCCCCCC/C=C\C(=O)O [Cis-2-decenoic acid, Cis-2-Decenoic Acid]
  effect on S. aureus growth and biofilm formation: inhibit S. aureus growth and biofilm formation
